The values that follow are results of earlier work, collected in patent US20140302178A1, “Natural Product for Decreasing Symptoms During Viral Infections” (priority 2013, published 2014).

Molecules are shown by their SMILES.

For the data set, the system named is Herpes Simplex Virus (HSV). Conditions: oral antiviral therapy; pooled meta-analysis.
For the molecule `CC(=O)OCC(CCn1cnc2cnc(N)nc21)COC(C)=O` [famciclovir], the “decrease of outbreak duration and the associated pain” value (“decrease” below) is 1 days. For the molecule `Nc1nc2c(ncn2COCCO)c(=O)[nH]1` [aciclovir], the “decrease” value was 1 days. Regarding `CC(C)[C@H](N)C(=O)OCCOCn1cnc2c(=O)[nH]c(N)nc21` [valaciclovir], the “decrease” value is 1 days.
